We go through two compounds from patent US9550792B2, “Polycyclic substituted pyrazole kinase activity inhibitors and use thereof” (priority 2013, dated 2017).

SMILES strings stand for the structures. “And” between values parts separate entries of the source, which are not always exact repeats. Identical values can stand only once. Like-named read-outs stand apart in the source and are kept apart here.

A short description of one data set: Plasma stability. The format is in vitro ADME. Conditions: rat plasma. Here is the method: (§1) 300 μL blood collected from the rat was mixed with 30 μL methanol and 2 mL ethyl acetate. The samples were vortexed for 3 min and centrifuged at 4000 rpm for 15 min. The supernatant was introduced into another centrifugal tube. The lower layer was repeatedly extracted and then the supernatants were combined and dried with nitrogen gas. After redissolution with 150 μL methanol, they were filtered by 0.22 μm membrane and then subjected to analysis with a injection volume of 20 μL.
[…] The samples were prepared according to the method of 3.1. 20 μL were introduced into the HPLC system and the peak area is recorded for analysis to determine the stability of compound 1 and 2 in plasma.

A short description of data set [1]: Pharmacokinetics after single oral dose in rats. The format is in vivo, Wistar rat. The method, then: as §1
An amount of compound was taken accurately to prepare CMC-Na aqueous solution containing 3 mg/mL of drug. 12 healthy male Wister rats were randomly assigned to two groups, each group including 6 rats. The first group was administrated orally compound 1. The second group was administrated orally compound 2. The doses were both 30 mg/kg (corresponding to 2 mL for each rat). The rats were fasting for 12 h before administration and free access to water. 0.6 mL blood samples were collected at 0.5, 1, 1.5, 2, 2.5, 3, 5, 8, 12 and 24 h after drug administration from the venous sinuses and added into EP tubes which were rinsed with heparin sodium previously. The samples were centrifuged at 4,000 r/min for 15 min and the upper plasma were obtained. 300 μL plasma was subjected to analysis and the chromatogram and peak area were recorded. The plasma concentrations of compounds 1 and 2 were calculated to give average concentration-time curve.
DAS 2.0 program was used to analyze plasma concentration vs. time data after s single oral dose (Table 6, 7). Fitting and the AIC methods were used to determine the model. The analysis was based on the principle that the larger fitting and the smaller AIC, the better model. The oral administration was consistent with the two-compartment model. The statistical distance parameter is used to compare the 2 compounds for the pharmacokinetic parameters.

For data set [2], the system named is colon cancer cell line HCT116. The data set is described as follows: Anti-tumor activity in vitro, MTT method. Format: cell-based. Conditions: Homo sapiens, HCT-116, 48 h, read-out: HCT-116 (IC50/μM). A general note: Tetrazolium assays rely on reduction of a dye to a coloured formazan, in cell work by metabolically active cells.
The test system of a further data set is lung cancer cell H1299. The data set is described as follows: Anti-tumor activity in vitro, MTT method. The format is cell-based. Conditions: Homo sapiens, NCI-H1299, 48 h, read-out: H1299 (IC50/μM).
The mark [3] stands for this setting: male, Wistar, plasma, rat, oral 30 mg/kg.

What is called Cmax is the highest concentration seen after dosing. What is called Tmax is the time from dosing to the highest level. As usually defined, the half-life is how long it takes for the measured level to halve. Regarding `O=C(Nc1ccc(CN2CCOCC2)cc1)c1n[nH]cc1Nc1ncnc2sccc12` [Compound I-2, 4-(4-thieno[2,3-d]pyrimidinylamino)-N-(4-((4-morpholinyl)methyl)phenyl)-1H-3-pyrazolecarboxamide], the “plasma stability in 24 h (in words)” value in “Plasma stability” (24 h) is given as “good plasma stability”. Further, the “Plasma stability (HPLC reading)” value in “Plasma stability” (Time 0 h) was determined as 2.36; in “Plasma stability” (Time 1 h), 2.34; in “Plasma stability” (Time 2 h), 2.29; in “Plasma stability” (Time 3 h), 2.21; in “Plasma stability” (Time 5 h), 2.16; in the data set “Plasma stability” (Time 8 h), 2.11. The “Plasma stability (HPLC reading)” value turned out to be 1.97 in “Plasma stability” (Time 12 h) and 1.85 in the data set “Plasma stability” (Time 24 h). The compound further came in with a Cmax in data set [1] (setting [3]) of 265 ± 52.9 ng/mL. In addition, in data set [1] (setting [3]), the Tmax came to 14 ± 5.29 h. This compound also gave a half-life in data set [1] (setting [3]) of 14.7 ± 4.23 h. For the same compound, in data set [1] (male, Wistar, plasma, rat, oral 30 mg/kg, read-out: AUC 0-24), the AUC(0-t) stood at 4350 ± 1300 ng·h/mL. Also, the MRT last in data set [1] (male, Wistar, plasma, rat, oral 30 mg/kg, read-out: MRT 0-24) was determined as 13.8 ± 1.29 h. For the same compound, in data set [1] (male, Wistar, rat, plasma, po, 30 mg/kg, mean of rats, oral 30 mg/kg, time 0.5 h, read-out: Plasma concentration, mean), the concentration at 0.5 h was 50.8 ng/mL. The concentration at 1 h in data set [1] (male, Wistar, rat, plasma, po, 30 mg/kg, mean of rats, oral 30 mg/kg, time 1 h, read-out: Plasma concentration, mean) was found to be 85.3 ng/mL. The concentration at 2 h in data set [1] (male, Wistar, rat, plasma, po, 30 mg/kg, mean of rats, oral 30 mg/kg, time 2 h, read-out: Plasma concentration, mean) stood at 53.2 ng/mL. The concentration at 2.5 h was 57.6 ng/mL in data set [1] (male, Wistar, rat, plasma, po, 30 mg/kg, mean of rats, oral 30 mg/kg, time 2.5 h, read-out: Plasma concentration, mean) and 72.9 ng/mL in data set [1] (male, Wistar, rat, plasma, po, 30 mg/kg, rat No. 1-6, oral 30 mg/kg, time 2.5 h, read-out: Plasma concentration, individual rats). The concentration at 3 h in data set [1] (male, Wistar, rat, plasma, po, 30 mg/kg, mean of rats, oral 30 mg/kg, time 3 h) was 64.5 ng/mL. In data set [1] (male, Wistar, rat, plasma, po, 30 mg/kg, mean of rats, oral 30 mg/kg, time 5 h), this compound returned a concentration at 5 h of 122 ng/mL. Moreover, the concentration at 8 h in data set [1] (male, Wistar, rat, plasma, po, 30 mg/kg, mean of rats, oral 30 mg/kg, time 8 h, read-out: Plasma concentration, mean) stood at 162 ng/mL. The concentration at 12 h was 264 ng/mL in data set [1] (male, Wistar, rat, plasma, po, 30 mg/kg, mean of rats, oral 30 mg/kg, time 12 h, read-out: Plasma concentration, mean) and 253 ng/mL in data set [1] (male, Wistar, rat, plasma, po, 30 mg/kg, rat No. 1-6, oral 30 mg/kg, time 12 h, read-out: Plasma concentration, individual rats). Further, in data set [1] (male, Wistar, rat, plasma, po, 30 mg/kg, mean of rats, oral 30 mg/kg, time 24 h), the concentration at 24 h was found to be 157 ng/mL. Also, the “Plasma concentration, individual rats” value is 29.26 ng*ml/1 and 123.49 ng*ml/1 and 25.98 ng*ml/1 and 24.36 ng*ml/1 in data set [1] (rat No. 1-6, oral 30 mg/kg, time 0.5 h, 30 mg/kg); 208.71 ng*ml/1 and 28.68 ng*ml/1 and 18.66 ng*ml/1 in data set [1] (rat No. 1-6, oral 30 mg/kg, time 1 h, 30 mg/kg); 53.04 ng*ml/1 and 88.44 ng*ml/1 and 37.16 ng*ml/1 and 47.57 ng*ml/1 and 47.03 ng*ml/1 and 46.08 ng*ml/1 in data set [1] (rat No. 1-6, oral 30 mg/kg, time 2 h, 30 mg/kg); 74.79 ng*ml/1 and 57.6 ng*ml/1 and 39.48 ng*ml/1 and 49.89 ng*ml/1 and 51.04 ng*ml/1 in data set [1] (rat No. 1-6, oral 30 mg/kg, time 2.5 h, 30 mg/kg); 81.11 ng*ml/1 and 87.89 ng*ml/1 and 57.21 ng*ml/1 and 41.79 ng*ml/1 and 65.08 ng*ml/1 and 53.93 ng*ml/1 in data set [1] (rat No. 1-6, oral 30 mg/kg, time 3 h, 30 mg/kg); 124.06 ng*ml/1 and 272.93 ng*ml/1 and 86.12 ng*ml/1 and 78.03 ng*ml/1 and 94.32 ng*ml/1 and 76.64 ng*ml/1 in data set [1] (rat No. 1-6, oral 30 mg/kg, time 5 h, 30 mg/kg). In addition, the “Plasma concentration, individual rats” value in data set [1] (rat No. 1-6, oral 30 mg/kg, time 8 h, 30 mg/kg) is 196.61 ng*ml/1 and 263.95 ng*ml/1 and 119.66 ng*ml/1 and 82.66 ng*ml/1 and 121.59 ng*ml/1 and 186.27 ng*ml/1; in data set [1] (rat No. 1-6, oral 30 mg/kg, time 12 h, 30 mg/kg) it was 345.56 ng*ml/1 and 229.22 ng*ml/1 and 256.32 ng*ml/1 and 213.94 ng*ml/1 and 286.97 ng*ml/1; in data set [1] (rat No. 1-6, oral 30 mg/kg, time 24 h, 30 mg/kg) it was 198.92 ng*ml/1 and 97.83 ng*ml/1 and 209.56 ng*ml/1 and 221.75 ng*ml/1 and 74.79 ng*ml/1 and 138.91 ng*ml/1. The “pharmacokinetic parameters (in words)” value in data set [1] (rat, oral 30 mg/kg) was “acceptable”.

For the compound `CN1CCN(Cc2ccc(NC(=O)c3n[nH]cc3Nc3ncnc4occc34)cc2)CC1` [Compound I-21, 4-(4-furo[2,3-d]pyrimidinylamino)-N-(4-((4-methyl-1-piperazinyl)methyl)phenyl)-1H-3-pyrazolecarboxamide], the IC50 in data set [2] was determined as 9.58 µM; in the data set on lung cancer cell H1299, 7.66 µM.
